Key:
[1] = target: T1, Adrenergic receptor alpha-1 (Homo sapiens, UniProt P35348+P25100+P35368); assay: Binding affinity towards Alpha-1 adrenergic receptor in human brain
T1 sequence (P35348 whole entry): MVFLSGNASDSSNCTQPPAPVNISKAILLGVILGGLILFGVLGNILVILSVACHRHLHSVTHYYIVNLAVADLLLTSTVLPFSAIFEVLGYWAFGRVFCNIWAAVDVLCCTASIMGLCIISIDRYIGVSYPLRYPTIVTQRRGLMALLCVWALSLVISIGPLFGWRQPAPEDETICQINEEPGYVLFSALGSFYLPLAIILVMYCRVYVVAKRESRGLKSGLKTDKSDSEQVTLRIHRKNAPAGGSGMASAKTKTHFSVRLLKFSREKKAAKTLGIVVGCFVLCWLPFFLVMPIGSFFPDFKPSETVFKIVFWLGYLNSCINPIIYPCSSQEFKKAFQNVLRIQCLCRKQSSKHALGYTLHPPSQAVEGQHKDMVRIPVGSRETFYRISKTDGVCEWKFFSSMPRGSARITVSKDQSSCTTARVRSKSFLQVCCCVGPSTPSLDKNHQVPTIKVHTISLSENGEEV
T1 sequence (P25100 whole entry): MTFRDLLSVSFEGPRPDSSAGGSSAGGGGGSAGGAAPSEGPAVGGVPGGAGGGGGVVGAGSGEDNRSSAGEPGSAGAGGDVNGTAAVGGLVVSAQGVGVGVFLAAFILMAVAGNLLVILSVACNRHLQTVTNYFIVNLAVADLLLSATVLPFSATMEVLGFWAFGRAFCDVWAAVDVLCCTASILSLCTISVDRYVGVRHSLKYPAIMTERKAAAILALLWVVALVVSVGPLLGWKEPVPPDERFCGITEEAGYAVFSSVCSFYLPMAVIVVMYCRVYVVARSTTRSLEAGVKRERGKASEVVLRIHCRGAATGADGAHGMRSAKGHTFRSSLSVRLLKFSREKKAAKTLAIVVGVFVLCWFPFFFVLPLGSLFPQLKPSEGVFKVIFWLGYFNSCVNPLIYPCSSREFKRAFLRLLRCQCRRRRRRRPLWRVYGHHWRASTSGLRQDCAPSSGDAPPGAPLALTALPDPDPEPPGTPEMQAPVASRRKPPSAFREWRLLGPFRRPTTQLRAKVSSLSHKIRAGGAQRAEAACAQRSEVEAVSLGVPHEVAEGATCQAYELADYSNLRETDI
T1 sequence (P35368 whole entry): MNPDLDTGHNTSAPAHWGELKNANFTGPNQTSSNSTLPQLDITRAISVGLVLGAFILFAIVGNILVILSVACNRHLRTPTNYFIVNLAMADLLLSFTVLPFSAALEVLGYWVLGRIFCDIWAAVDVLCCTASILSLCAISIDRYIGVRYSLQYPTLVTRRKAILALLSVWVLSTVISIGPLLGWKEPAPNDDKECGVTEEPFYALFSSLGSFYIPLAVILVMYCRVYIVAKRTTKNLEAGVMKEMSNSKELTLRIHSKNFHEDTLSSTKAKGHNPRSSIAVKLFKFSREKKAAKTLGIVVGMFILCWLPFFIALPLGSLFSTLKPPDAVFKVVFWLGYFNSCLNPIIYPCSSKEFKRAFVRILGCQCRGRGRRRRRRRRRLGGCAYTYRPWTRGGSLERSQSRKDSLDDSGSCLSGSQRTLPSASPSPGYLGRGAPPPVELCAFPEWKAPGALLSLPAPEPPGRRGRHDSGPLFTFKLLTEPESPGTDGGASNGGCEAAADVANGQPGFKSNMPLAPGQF

[2] = target: T2, Adrenergic receptor alpha-2 (Homo sapiens, UniProt P08913+P18825+P18089); assay: Binding affinity towards Alpha-2 adrenergic receptor in HT-29 cells; assay type: cell-based
T2 sequence (P08913 whole entry): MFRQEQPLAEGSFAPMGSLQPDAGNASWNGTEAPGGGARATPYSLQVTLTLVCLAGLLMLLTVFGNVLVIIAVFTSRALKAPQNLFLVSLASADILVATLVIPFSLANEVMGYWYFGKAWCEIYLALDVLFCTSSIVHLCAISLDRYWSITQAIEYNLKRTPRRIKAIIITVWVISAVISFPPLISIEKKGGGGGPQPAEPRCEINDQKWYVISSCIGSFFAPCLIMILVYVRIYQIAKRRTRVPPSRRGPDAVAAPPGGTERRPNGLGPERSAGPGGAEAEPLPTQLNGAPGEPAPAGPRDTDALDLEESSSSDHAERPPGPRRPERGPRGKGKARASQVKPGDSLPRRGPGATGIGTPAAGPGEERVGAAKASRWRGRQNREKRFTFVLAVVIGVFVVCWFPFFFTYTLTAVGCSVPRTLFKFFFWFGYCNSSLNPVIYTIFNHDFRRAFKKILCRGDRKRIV
T2 sequence (P18825 whole entry): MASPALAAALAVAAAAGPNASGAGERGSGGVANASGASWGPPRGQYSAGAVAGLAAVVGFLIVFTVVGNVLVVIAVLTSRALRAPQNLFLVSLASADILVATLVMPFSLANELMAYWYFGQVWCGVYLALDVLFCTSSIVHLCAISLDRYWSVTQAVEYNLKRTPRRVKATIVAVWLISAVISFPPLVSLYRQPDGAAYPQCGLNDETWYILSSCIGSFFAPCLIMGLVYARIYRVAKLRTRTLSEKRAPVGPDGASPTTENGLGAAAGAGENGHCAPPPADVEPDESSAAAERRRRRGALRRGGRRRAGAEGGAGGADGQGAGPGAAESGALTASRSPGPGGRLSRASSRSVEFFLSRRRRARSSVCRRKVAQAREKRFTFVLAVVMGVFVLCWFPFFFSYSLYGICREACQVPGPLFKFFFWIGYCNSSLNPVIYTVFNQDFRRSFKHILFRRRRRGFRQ
T2 sequence (P18089 whole entry): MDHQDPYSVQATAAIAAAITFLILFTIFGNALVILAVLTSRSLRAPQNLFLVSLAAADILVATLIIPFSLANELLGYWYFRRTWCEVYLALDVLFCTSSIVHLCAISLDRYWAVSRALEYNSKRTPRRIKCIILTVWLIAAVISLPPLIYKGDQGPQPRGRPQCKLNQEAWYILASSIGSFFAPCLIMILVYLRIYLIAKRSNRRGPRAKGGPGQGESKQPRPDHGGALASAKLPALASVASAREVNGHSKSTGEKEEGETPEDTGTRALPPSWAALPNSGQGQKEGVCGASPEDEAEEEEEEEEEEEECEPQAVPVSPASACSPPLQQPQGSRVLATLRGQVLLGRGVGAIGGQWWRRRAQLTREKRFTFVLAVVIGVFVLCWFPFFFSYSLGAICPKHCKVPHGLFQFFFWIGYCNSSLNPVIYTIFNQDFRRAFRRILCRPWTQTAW

[3] = Distribution coefficient between octanol and pH 7.2 phosphate buffer; assay type: physicochemical; details: for logD: octanol/phosphate buffer

| Ki [1] [nM] | Ki [2] [nM] | logD [3] | Compound | Log DC ([3]; octanol/water) |
| --- | --- | --- | --- | --- |
| 5100 | 46 | – | c1cc2c(cc1NC1=NCCN1)NCCN2 | – |
| 8700 | 6.8 | -2.08 | Cc1c(NC2=NCCN2)ccc2c1NCCN2 | – |
| 1100 | 6 | -1.74 | Brc1c(NC2=NCCN2)ccc2c1NCCN2 | – |
| – | – | – | Brc1c(NC2=NCCN2)ccc2nccnc12 [BRIMONIDINE] | 1.5 |

| Compound | Ki [1] [nM] | Ki [2] [nM] | logD [3] | Log DC ([3]; octanol/water) |
| --- | --- | --- | --- | --- |
| Cc1c(NC2=NCCN2)ccc2nccnc12 | 1400 | 1.3 | 0.16 | – |
| c1cnc2cc(NC3=NCCN3)ccc2n1 | 11000 | 64 | – | – |

From ChEMBL document CHEMBL1127237, “Analogs of UK 14,304 as 2-adrenoceptor agonists. Twist and agent polarity as design elements” (Bioorg Med Chem Lett, 1994)
